Laboratory results reported in ChEMBL document CHEMBL5537163, “Discovery of Novel Phenoxyaryl Pyridones as Bromodomain and Extra-Terminal Domain (BET) Inhibitors with High Selectivity for the Second Bromodomain (BD2) to Potentially Treat Acute Myeloid Leukemia” (J Med Chem, 2024).

Assays:
[1] = target: T1, Voltage-gated inwardly rectifying potassium channel KCNH2 (Homo sapiens, UniProt Q12809); assay: Inhibition of hERG in HEK293 cells at -80 mV holding potential by automated patch clamp electrophysiology; assay type: toxicity, cell-based
T1 sequence (Q12809 whole entry): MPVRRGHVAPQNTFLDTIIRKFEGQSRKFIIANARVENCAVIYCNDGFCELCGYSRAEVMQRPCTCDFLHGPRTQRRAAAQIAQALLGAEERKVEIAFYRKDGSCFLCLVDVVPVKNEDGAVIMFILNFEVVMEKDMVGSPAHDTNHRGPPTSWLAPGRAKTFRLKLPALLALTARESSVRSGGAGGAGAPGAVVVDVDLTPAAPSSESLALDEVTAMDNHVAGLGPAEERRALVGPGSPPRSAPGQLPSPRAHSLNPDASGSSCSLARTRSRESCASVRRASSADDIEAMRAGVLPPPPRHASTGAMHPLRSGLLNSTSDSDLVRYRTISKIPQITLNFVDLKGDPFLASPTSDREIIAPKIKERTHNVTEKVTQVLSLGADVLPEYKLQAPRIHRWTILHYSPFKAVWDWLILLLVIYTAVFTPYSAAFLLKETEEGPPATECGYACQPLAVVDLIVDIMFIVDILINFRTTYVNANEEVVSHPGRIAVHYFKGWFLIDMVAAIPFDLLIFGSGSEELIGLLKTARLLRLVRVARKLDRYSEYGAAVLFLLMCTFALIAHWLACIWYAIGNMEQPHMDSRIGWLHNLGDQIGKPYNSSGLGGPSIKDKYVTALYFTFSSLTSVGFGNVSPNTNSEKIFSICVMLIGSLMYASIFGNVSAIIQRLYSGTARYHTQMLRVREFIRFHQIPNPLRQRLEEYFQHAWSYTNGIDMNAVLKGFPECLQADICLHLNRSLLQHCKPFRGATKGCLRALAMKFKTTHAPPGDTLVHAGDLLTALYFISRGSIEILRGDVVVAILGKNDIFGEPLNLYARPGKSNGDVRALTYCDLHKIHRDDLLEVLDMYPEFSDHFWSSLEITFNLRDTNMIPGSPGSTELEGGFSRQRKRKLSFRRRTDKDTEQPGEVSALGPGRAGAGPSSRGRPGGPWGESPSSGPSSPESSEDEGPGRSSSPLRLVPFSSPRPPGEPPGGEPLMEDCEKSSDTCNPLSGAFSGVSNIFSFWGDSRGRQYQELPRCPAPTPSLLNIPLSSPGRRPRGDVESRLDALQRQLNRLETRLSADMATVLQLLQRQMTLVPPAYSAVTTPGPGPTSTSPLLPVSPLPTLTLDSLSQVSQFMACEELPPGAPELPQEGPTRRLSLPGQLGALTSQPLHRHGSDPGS

[2] = target: T2, Bromodomain-containing protein 2 (Homo sapiens, UniProt P25440); assay: Inhibition of BRD2 BD1 (unknown origin) using biotinylated tetra-acetylated H4 peptide SGRG-K(Ac)-GG-K(Ac)-GLG-K(Ac)-GGA-K(Ac)-RHRK-Biotin as substrate incubated for 1 hr by TR-FRET assay
T2 sequence (P25440 whole entry): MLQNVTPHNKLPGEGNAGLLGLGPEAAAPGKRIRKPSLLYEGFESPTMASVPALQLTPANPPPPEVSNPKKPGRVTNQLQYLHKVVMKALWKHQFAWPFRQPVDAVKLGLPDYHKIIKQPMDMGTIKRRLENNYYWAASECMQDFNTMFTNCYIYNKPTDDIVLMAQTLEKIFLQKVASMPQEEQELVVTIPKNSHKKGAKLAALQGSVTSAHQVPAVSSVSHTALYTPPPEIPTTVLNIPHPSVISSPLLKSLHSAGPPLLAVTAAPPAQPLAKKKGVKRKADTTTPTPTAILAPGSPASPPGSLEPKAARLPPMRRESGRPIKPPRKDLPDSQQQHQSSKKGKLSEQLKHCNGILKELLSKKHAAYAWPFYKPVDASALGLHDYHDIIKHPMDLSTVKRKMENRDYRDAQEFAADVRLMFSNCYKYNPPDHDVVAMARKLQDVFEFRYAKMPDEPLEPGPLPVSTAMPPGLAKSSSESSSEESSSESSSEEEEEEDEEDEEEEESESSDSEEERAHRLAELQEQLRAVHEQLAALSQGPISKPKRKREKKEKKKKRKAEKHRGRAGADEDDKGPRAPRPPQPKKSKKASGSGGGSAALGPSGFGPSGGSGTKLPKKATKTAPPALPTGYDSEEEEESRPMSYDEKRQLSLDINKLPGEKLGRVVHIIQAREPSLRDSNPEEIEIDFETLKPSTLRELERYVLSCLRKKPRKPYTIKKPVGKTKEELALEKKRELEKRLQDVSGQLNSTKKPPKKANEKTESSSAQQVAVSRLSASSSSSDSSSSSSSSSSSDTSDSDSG

[3] = target: T3, Bromodomain-containing protein 3 (Homo sapiens, UniProt Q15059); assay: Inhibition of BRD3 BD2 (unknown origin) using biotinylated tetra-acetylated H4 peptide SGRG-K(Ac)-GG-K(Ac)-GLG-K(Ac)-GGA-K(Ac)-RHRK-Biotin as substrate incubated for 1 hr by TR-FRET assay
T3 sequence (Q15059 whole entry): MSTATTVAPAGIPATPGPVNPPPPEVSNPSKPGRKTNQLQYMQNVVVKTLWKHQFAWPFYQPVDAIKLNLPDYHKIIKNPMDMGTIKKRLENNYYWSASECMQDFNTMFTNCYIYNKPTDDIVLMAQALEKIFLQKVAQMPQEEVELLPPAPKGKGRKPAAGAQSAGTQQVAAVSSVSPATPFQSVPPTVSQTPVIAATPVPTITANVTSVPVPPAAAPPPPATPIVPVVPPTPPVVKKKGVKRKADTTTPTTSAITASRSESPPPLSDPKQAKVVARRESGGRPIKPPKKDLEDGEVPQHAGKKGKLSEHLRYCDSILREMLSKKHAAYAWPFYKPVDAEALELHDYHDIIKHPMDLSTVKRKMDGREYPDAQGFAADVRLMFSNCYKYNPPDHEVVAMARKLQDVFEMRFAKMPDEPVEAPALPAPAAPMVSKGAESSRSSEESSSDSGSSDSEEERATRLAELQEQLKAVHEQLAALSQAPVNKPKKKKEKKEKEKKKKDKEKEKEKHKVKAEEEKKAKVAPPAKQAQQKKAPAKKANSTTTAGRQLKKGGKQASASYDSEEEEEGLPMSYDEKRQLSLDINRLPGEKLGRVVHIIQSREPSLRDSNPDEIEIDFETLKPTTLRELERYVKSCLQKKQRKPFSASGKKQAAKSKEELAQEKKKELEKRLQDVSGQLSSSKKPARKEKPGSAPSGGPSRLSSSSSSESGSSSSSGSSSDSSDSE

[4] = target: T3, Bromodomain-containing protein 3; assay: Inhibition of BRD3 BD1 (unknown origin) using biotinylated tetra-acetylated H4 peptide SGRG-K(Ac)-GG-K(Ac)-GLG-K(Ac)-GGA-K(Ac)-RHRK-Biotin as substrate incubated for 1 hr by TR-FRET assay
[5] = target: T2, Bromodomain-containing protein 2; assay: Inhibition of BRD2 BD2 (unknown origin) using biotinylated tetra-acetylated H4 peptide SGRG-K(Ac)-GG-K(Ac)-GLG-K(Ac)-GGA-K(Ac)-RHRK-Biotin as substrate incubated for 1 hr by TR-FRET assay
[6] = target: T4, Bromodomain testis-specific protein (Homo sapiens, UniProt Q58F21); assay: Inhibition of BRDT BD1 (unknown origin) using biotinylated tetra-acetylated H4 peptide SGRG-K(Ac)-GG-K(Ac)-GLG-K(Ac)-GGA-K(Ac)-RHRK-Biotin as substrate incubated for 1 hr by TR-FRET assay
[7] = target: T4, Bromodomain testis-specific protein; assay: Inhibition of BRDT BD2 (unknown origin) using biotinylated tetra-acetylated H4 peptide SGRG-K(Ac)-GG-K(Ac)-GLG-K(Ac)-GGA-K(Ac)-RHRK-Biotin as substrate incubated for 1 hr by TR-FRET assay
[8] = system: MV4-11; assay: Antitumor activity against human MV4-11 cells xenografted in BALB/c nude mouse assessed as tumor growth inhibition at 37.5 mg/kg, po administered once daily for 21 days and measured every other day relative to control; assay type: functional; conditions: MV4-11, 504 h, time 21 day, read-out: TGI
[9] = system: MOLM-13; assay: Antiproliferative activity against human MOLM-13 cells assessed as inhibition of cell proliferation incubated for 72 hrs by CellTiterGlo luminescence assay; assay type: functional, cell-based; conditions: MOLM-13, 72 h
[10] = target: T1, Voltage-gated inwardly rectifying potassium channel KCNH2; assay: Inhibition of hERG expressed in HEK293 cells at -80 mV holding potential by whole-cell patch clamp technique; assay type: toxicity, cell-based
[11] = system: MV4-11; assay: Antiproliferative activity against human MV4-11 cells assessed as inhibition of cell proliferation incubated for 72 hrs by CellTiterGlo luminescence assay; assay type: functional, cell-based; conditions: MV4-11, 72 h

| IC50 [2] [µM] | IC50 [3] [µM] | IC50 [4] [µM] | IC50 [5] [µM] | IC50 [6] [µM] | IC50 [7] [µM] | IC50 [9] [µM] | IC50 [11] [µM] | Compound | IC50 [1] [µM] | inhibition in vivo at 37.5 mg/kg [8] [%] | IC50 [10] [µM] |
| --- | --- | --- | --- | --- | --- | --- | --- | --- | --- | --- | --- |
| – | – | – | – | – | – | – | – | CCNC(=O)COc1cc(=O)n(C)cc1-c1cc(C(C)(C)O)ccc1Oc1c(C)cccc1C | > 30 | – | – |
| 13.5 | 0.0159 | 12.8 | 0.0111 | 4.39 | 0.0097 | – | – | Cc1cc(F)cc(C)c1Oc1ccc(C(C)(C)O)cc1-c1cn(C)c(=O)cc1NCC(=O)N1CCOCC1 | > 30 | – | – |
| – | – | – | – | – | – | 0.039 | 0.015 | CCNC(=O)c1cc2c(-c3cc(C(C)(C)O)ccc3Oc3c(C)cc(F)cc3C)cn(C)c(=O)c2[nH]1 [ABBV-744] | 2.8 | 55 | 3.1 |
